Source: ChEMBL document CHEMBL1124518, “Nonsteroidal cardiotonics. 2. The inotropic activity of linear, tricyclic 5-6-5 fused heterocycles” (1989)

Tests used:
Rattus norvegicus [1] = species on record: Rattus norvegicus; assay: Effective dose required to produce an increase in dP/dt5 by 1500 mmHg/s in rats; format: functional
Felis catus [2] = species on record: Felis catus; assay: Effective dose required to produce an increase in dP/dt5 by 1500 mmHg/s in cats; format: functional
Rattus norvegicus [3] = assay: Maximum increase in dP/dt when administered intravenously in rats at 3 mg/kg dose.; format: functional; details: route intravenous
Rattus norvegicus [4] = assay: Maximum increase in dP/dt when administered intravenously in rats at […] dose.; format: functional
Rattus norvegicus [5] = assay: Maximum increase in dP/dt when administered intravenously in rats at 10 mg/kg dose.; format: functional; parameters: unit not given here; details: route intravenous
Canis familiaris [6] = assay: Maximum increase in dP/dt60 when administered orally in dogs at dose 1 mg/kg; format: functional, Canis lupus familiaris; details: route oral
Canis familiaris [7] = assay: Maximum increase in dP/dt when administered intravenously in dogs at 1 mg/kg dose.; format: functional, Canis lupus familiaris; details: route intravenous
Rattus norvegicus [8] = assay: Maximum increase in dP/dt when administered intravenously in rats at 1 mg/kg.; format: functional; details: route intravenous
Canis familiaris [9] = assay: Amount of time during which increase in administered orally in conscious dogs at 1 mg/kg; format: functional, Canis lupus familiaris; details: route oral
Canis familiaris [10] = assay: Time after which maximum increase in contractility was observed when administered orally in conscious dogs at 1 mg/kg; format: functional, Canis lupus familiaris; details: route oral
Canis familiaris [11] = species on record: Canis familiaris; assay: Effective dose required to produce an increase in dP/dt5 by 1500 mmHg/s in dogs; format: functional, Canis lupus familiaris
Rattus norvegicus [12] = assay: Maximum increase in dP/dt when administered intravenously in rats at 3 mg/kg.; format: functional; details: route intravenous
Felis catus [13] = assay: Maximum increase in dP/dt when administered intravenously in cats at 0.1 mg/kg dose.; format: functional; details: route intravenous
Rattus norvegicus [14] = assay: Maximum increase in dP/dt when administered intravenously in rats Value in parenthesis denotes dose at which test performed; format: functional
Rattus norvegicus [15] = assay: Maximum increase in dP/dt when administered intravenously in rats at 1 mg/kg dose.; format: functional; parameters: unit not given here; details: route intravenous
Felis catus [16] = assay: Maximum increase in dP/dt when administered intravenously in cats at 0.3 mg/kg.; format: functional; details: route intravenous

Compound `COc1cc([S+](C)[O-])ccc1-c1nc2cc3c(cc2[nH]1)C(C)(C)C(=O)N3` (stereo not given) has an ED1.5 (Rattus norvegicus [1]) greater than 3 mg/kg.
Work on `CC1(C)C(=O)Nc2cc3[nH]c(-c4cccs4)nc3cc21` yielded an ED1.5 (Felis catus [2]) of 0.07 mg/kg and an ED1.5 (Rattus norvegicus [1]) of 0.12 mg/kg.
For `COc1ccc(-c2nc3cc4c(cc3[nH]2)C(C)(C)C(=O)N4)cc1`, the ED1.5 (Rattus norvegicus [1]) was greater than 3 mg/kg.
`Cn1c(O)nc2cc3[nH]c(O)nc3cc21` gave an ED1.5 (Rattus norvegicus [1]) greater than 3 mg/kg.
In the case of `COc1ccccc1-c1nc2cc3c(cc2[nH]1)C(C)(C)C(=O)N3`, the ED1.5 (Felis catus [2]) is reported as greater than 3 mg/kg and the ED1.5 (Rattus norvegicus [1]) is reported as greater than 3 mg/kg.
With `CN(C)c1ccc(-c2nc3cc4c(cc3[nH]2)C(C)(C)C(=O)N4)cc1` the ED1.5 (Rattus norvegicus [1]) was greater than 3 mg/kg.
`CC1(C)C(=O)Nc2cc3[nH]c(S)nc3cc21` showed an ED1.5 (Felis catus [2]) of 0.06 mg/kg, a Max (Rattus norvegicus [3]) of 3.5 mHg s-1 and an ED1.5 (Rattus norvegicus [1]) of 0.55 mg/kg.
Work on `CCn1c(O)nc2cc3[nH]c(-c4ccnnc4)nc3cc21` yielded an ED1.5 (Felis catus [2]) of 0.02 mg/kg, a Max (Rattus norvegicus [3]) of 3.2 mHg s-1 and an ED1.5 (Rattus norvegicus [1]) of 0.04 mg/kg.
`CC1(C)C(=O)Nc2cc3[nH]c(O)cc3cc21` gave an ED1.5 (Rattus norvegicus [1]) of 0.11 mg/kg and a Max (Rattus norvegicus [4]) of 2 mmHg s-1.
With `CN1C(=O)C(C)(C)c2cc3[nH]c(-c4ccncc4)nc3cc21` the ED1.5 (Rattus norvegicus [1]) was greater than 3 mg/kg.
Work on `CC1(C)C(=O)Nc2cc3[nH]c(-c4ccc(-n5ccnc5)cc4)nc3cc21` yielded an ED1.5 (Felis catus [2]) of 0.25 mg/kg, an ED1.5 (Rattus norvegicus [1]) of 1 mg/kg and a Max (Rattus norvegicus [5]) of 2.8.
`CC1(C)C(=O)Nc2cc3[nH]c(-c4ccc(O)cc4)nc3cc21` gave an ED1.5 (Rattus norvegicus [1]) greater than 3 mg/kg.
Compound `CC(C)c1nc2cc3c(cc2[nH]1)C(C)(C)C(=O)N3` has an ED1.5 (Felis catus [2]) of 0.09 mg/kg, a Max (Canis familiaris [6]) of 2.2 mmHg s-1 and a Max (Canis familiaris [7]) of 1.9 mHg s-1. For the same compound, the Max (Rattus norvegicus [8]) was 2.3 mmHg s-1, the ED1.5 (Rattus norvegicus [1]) was 0.22 mg/kg and the Duration (Canis familiaris [9]) was 3 h. For the same compound, the Time (Canis familiaris [10]) was 30 min and the ED1.5 (Canis familiaris [11]) was 0.46 mg/kg.
Compound `CCn1c(O)nc2cc3[nH]c(-c4ccncc4)nc3cc21` has a Max (Rattus norvegicus [12]) of 2.3 mmHg s-1, an ED1.5 (Felis catus [2]) of 0.007 mg/kg and an ED1.5 (Rattus norvegicus [1]) of 0.05 mg/kg. The Duration (Canis familiaris [9]) was 0 h and the Max (Felis catus [13]) was 3.1 mmHg s-1.
For `CC1(C)C(=O)Nc2cc3[nH]c(-c4cc5ccccc5[nH]4)nc3cc21`, the ED1.5 (Rattus norvegicus [1]) was greater than 3 mg/kg.
For `CC1(C)C(=O)Nc2cc3[nH]c(-c4ccc(-n5ccnc5)cc4)cc3cc21`, the ED1.5 (Rattus norvegicus [1]) was greater than 3 mg/kg.
Compound `CC1(C)C(=O)Nc2cc3[nH]cnc3cc21` has an ED1.5 (Felis catus [2]) of 0.13 mg/kg, a Max (Rattus norvegicus [3]) of 3.2 mHg s-1 and an ED1.5 (Rattus norvegicus [1]) of 0.19 mg/kg.
`CC1(C)C(=O)Nc2cc3[nH]nnc3cc21` was tested, and the Max (Rattus norvegicus [14]) was 2.6 mmHg s-1 and the ED1.5 (Rattus norvegicus [1]) was 0.18 mg/kg.
`Cn1c(O)nc2cc3[nH]c(-c4ccnnc4)nc3cc21` was tested, and the Max (Rattus norvegicus [15]) was 2.7, the ED1.5 (Rattus norvegicus [1]) was 0.19 mg/kg and the Duration (Canis familiaris [9]) was 0 h.
With `CCCc1nc2cc3nc(O)oc3cc2[nH]1` the ED1.5 (Rattus norvegicus [1]) was greater than 3 mg/kg.
Compound `C=C(C)c1nc2cc3c(cc2[nH]1)C(C)(C)C(=O)N3` has an ED1.5 (Rattus norvegicus [1]) greater than 3 mg/kg.
`CC1(C)C(=O)Nc2cc3[nH]c(-c4ccncc4)cc3cc21` was tested, and the ED1.5 (Felis catus [2]) was 0.11 mg/kg, the Max (Rattus norvegicus [3]) was 3.4 mHg s-1 and the ED1.5 (Rattus norvegicus [1]) was 0.16 mg/kg.
With `Oc1nc2cc3[nH]c(-c4ccncc4)nc3cc2s1` the ED1.5 (Rattus norvegicus [1]) was 0.2 mg/kg.
In the case of `CCCn1c(O)nc2cc3[nH]c(-c4ccncc4)nc3cc21`, the Max (Rattus norvegicus [3]) is reported as 1.6 mHg s-1 and the ED1.5 (Rattus norvegicus [1]) is reported as 1 mg/kg.
In the case of `Cn1c(-c2ccncc2)nc2cc3c(cc21)NC(=O)C3(C)C`, the ED1.5 (Rattus norvegicus [1]) is reported as greater than 3 mg/kg.
Work on `CC1(C)C(=O)Nc2cc3[nH]c(-c4cnc5ccccc5c4)nc3cc21` yielded an ED1.5 (Rattus norvegicus [1]) greater than 3 mg/kg.
In the case of `CC1(C)C(=O)Nc2cc3[nH]c(-c4ccnc5ccccc45)nc3cc21`, the Max (Rattus norvegicus [3]) is reported as 1.8 mHg s-1 and the ED1.5 (Rattus norvegicus [1]) is reported as 2 mg/kg.
Compound `CCCc1nc2cc3c(cc2[nH]1)C(C)(C)C(=O)N3` has an ED1.5 (Felis catus [2]) of 0.12 mg/kg, a Max (Rattus norvegicus [15]) of 2.5 and an ED1.5 (Rattus norvegicus [1]) of 0.17 mg/kg. The Max (Felis catus [16]) was 2 mmHg s-1.
